SMILES strings stand for the structures.

This note sets out measurements from patent US10647654B2, “Glucose transport inhibitors and methods of using same” (OHIO UNIVERSITY, priority 2016, dated 2020).

Holding throughout (assay type): cell-based
Experiment [1] concerns basal glucose transport in A549 cells. As to the kind of experiment: standard glucose uptake assay in A549 lung cancer cells. The settings on record: Homo sapiens, DMSO treated cells as negative control. The method, then:
(§1) Compounds EKB-1, EKB-2, EKB-3, EKB-4, JDB-1, and JDB-2 were assayed for their ability to inhibit glucose uptake and cell growth in A549 lung cancer cell lines. A standard glucose uptake assay may be used to evaluate glucose uptake inhibition, and an MTT cell proliferation assay may be used to evaluate cancer cell growth inhibition. […] DMSO treated cells served as the negative control. […] Again, DMSO treated cells served as the negative control.

In another experiment the test system is A549 cells. As to the kind of experiment: MTT cell proliferation assay in A549 lung cancer cells. The settings on record: Homo sapiens, DMSO treated cells as negative control, read-out: Cell Growth Inhibition in A549 Cells (at 30 μM). The method, then: as §1
The test system of another experiment is H1299 cells. As to the kind of experiment: MTT cell proliferation assay in H1299 lung cancer cells. The settings on record: Homo sapiens, NCI-H1299, DMSO treated cells as negative control, read-out: Cell Growth Inhibition in H1299 Cells (at 30 μM). The method, then:
(§2) Compounds EKB-3 and EKB-4 were assayed for their ability to inhibit glucose uptake and cell growth in H1299 lung cancer cell lines. A standard glucose uptake assay may be used to evaluate glucose uptake inhibition, and an MTT cell proliferation assay may be used to evaluate cancer cell growth inhibition. […] DMSO treated cells served as the negative control. […] Again, DMSO treated cells served as the negative control. The glucose uptake inhibition and cell growth inhibition of comparative compound WZB-134 in H1299 cells is also provided in Table 2.
Background: Formazan colour is commonly taken as a measure of viable cells.

Experiment [2] deals with basal glucose transport in H1299 cells. As to the kind of experiment: standard glucose uptake assay in H1299 lung cancer cells. The settings on record: Homo sapiens, NCI-H1299, DMSO treated cells as negative control. The method, then:
as §2

A word on the inhibition: it is how much of the control response was suppressed. In the case of `COC(=O)C(Oc1cc(Cl)ccc1OCc1cccc(O)c1)c1cccc(O)c1` (stereo not shown) [EKB-1], the inhibition at 30 µM in experiment [1] came out at 54.3%; in the experiment on A549 cells, 62.2%.
As to `COC(=O)C(Oc1ccc(Cl)cc1OCc1cccc(O)c1)c1cccc(O)c1` (stereo not shown) [EKB-2], the inhibition at 30 µM in experiment [1] came out at 56.1%; in the experiment with A549 cells it was 51.5%.
For the compound `OCC(Oc1ccc(Cl)cc1OCc1cccc(O)c1)c1cccc(O)c1` (stereo not shown) [EKB-3], the inhibition at 30 µM was determined as 54% in the experiment with H1299 cells, 62.8% in experiment [1], 90.5% in experiment [2] and 55.5% in the experiment with A549 cells.
On to `COC(=O)C(Oc1cc(Cl)ccc1OCc1cccc(O)c1)c1cccc(OC)c1` (stereo not shown) [JDB-1], for which the inhibition at 30 µM came to 19.7% in experiment [1] and 24.6% in the experiment on A549 cells.
Regarding `COc1cccc(C(CO)Oc2cc(Cl)ccc2OCc2cccc(O)c2)c1` (stereo not shown) [JDB-2], the results for the inhibition at 30 µM (in experiment [1]; in the experiment with A549 cells) were 34.8% and 39.7%, respectively.
`Oc1cccc(COc2cccc(F)c2OCc2cccc(O)c2)c1` [WZB-134, reference compound]: the inhibition at 30 µM was determined as 10.6% with H1299 cells, 96% in experiment [1], 92.5% in experiment [2] and 10% with A549 cells.
